In paper PMC5737711 (ACS chemical neuroscience, 2017):

What was measured:
[1] = molecular target: CD36-Aβ interaction (recombinant extracellular domain of human CD36, fibrillar hAβ 1-42) (Homo sapiens, UniProt P16671); assay: Colorimetric assay for inhibitors of Aβ-CD36 interaction; type: binding; details: for Activity on the CD36-Aβ interaction (screen): first evaluated at 100 μM
N9 microglia cells = details: cited from earlier work
CD36-Aβ interaction = details: cited from earlier work

Sequence of CD36-Aβ interaction (recombinant extracellular domain of human CD36, fibrillar hAβ 1-42) (P16671 30-439): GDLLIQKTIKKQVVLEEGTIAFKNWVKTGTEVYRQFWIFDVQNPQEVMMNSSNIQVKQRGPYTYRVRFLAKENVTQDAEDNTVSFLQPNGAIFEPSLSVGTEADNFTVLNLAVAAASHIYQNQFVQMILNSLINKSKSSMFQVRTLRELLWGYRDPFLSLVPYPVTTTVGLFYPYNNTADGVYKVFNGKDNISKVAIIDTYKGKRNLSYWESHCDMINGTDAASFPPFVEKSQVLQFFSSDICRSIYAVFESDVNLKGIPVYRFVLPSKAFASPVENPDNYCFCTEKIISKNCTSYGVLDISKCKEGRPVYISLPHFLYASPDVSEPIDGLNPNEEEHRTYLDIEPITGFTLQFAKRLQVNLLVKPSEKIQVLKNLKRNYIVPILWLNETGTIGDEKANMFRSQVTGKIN

Structure (SMILES) | Activity on the CD36-Aβ interaction (screen) [1] | Mode of inhibition of the interaction CD36-Aβ ([1]; from dose response profile) | Effect on production of ROS induced by Aβ (N9 microglia cells) | Inhibition of CD36-Aβ interaction in a cell-based assay (CD36-Aβ interaction)
COc1ccc2cc(NC(=O)C3=NO[C@H]4[C@H](O)C=C[C@@H](O)[C@@]4(O)C3)c(=O)oc2c1OC [Compound 1, Trichodermamide A] | lacked activity |  |  | 
C[C@H]1[C@H](C)CC[C@]2(C(=O)O)CC[C@]3(C)C(=CC[C@@H]4[C@@]5(C)CC[C@H](O)C(C)(C)[C@@H]5CC[C@]43C)[C@H]12 [ursolic acid] |  | competitive inhibitor | inhibits the production of ROS | inhibitor of CD36-Aβ interaction
COc1ccc2cc(NC(=O)C3=NO[C@H]4[C@H](O)C=C[C@@H](Cl)[C@@]4(O)C3)c(=O)oc2c1OC [Compound 2, Trichodermamide B] | lacked activity |  |  | 
